Experimental data reported in BindingDB's records for doi:10.3109/14756360903179377 (Graduate University of Chinese Academy of Sciences, 2010).

Molecular target: Fatty acid synthase (Gallus gallus, UniProt P12276)
Experiment: FAS Activity Assay
Settings: pH 7; 37 °C
Method: FAS activity was determined by monitoring the decrease in absorbence at 340 nm resulting from the oxidation of NADPH using an Amersham Pharmacia Ultrospec 4300 pro UV-Vis spectrophotometer at 37°C. The assay mixture contained 100 mM potassium phosphate buffer, pH 7.0, 1 mM EDTA (ethylenediaminetetraacetic acid), 2.5 μM acetyl-CoA, 10 μM malonyl-CoA, 32 μM NADPH, and 10 μg chicken liver FAS in a total volume of 2.0 mL [Tian et al., J. Biol. Chem., 260:11375-87]. Fast inhibition was determined by adding thioether to the reaction system before FAS initiated the reaction. The initial velocity was measured to calculate the remaining activity (RA) of FAS, and each assay was repeated three times.

Chain of Fatty acid synthase (P12276 whole entry): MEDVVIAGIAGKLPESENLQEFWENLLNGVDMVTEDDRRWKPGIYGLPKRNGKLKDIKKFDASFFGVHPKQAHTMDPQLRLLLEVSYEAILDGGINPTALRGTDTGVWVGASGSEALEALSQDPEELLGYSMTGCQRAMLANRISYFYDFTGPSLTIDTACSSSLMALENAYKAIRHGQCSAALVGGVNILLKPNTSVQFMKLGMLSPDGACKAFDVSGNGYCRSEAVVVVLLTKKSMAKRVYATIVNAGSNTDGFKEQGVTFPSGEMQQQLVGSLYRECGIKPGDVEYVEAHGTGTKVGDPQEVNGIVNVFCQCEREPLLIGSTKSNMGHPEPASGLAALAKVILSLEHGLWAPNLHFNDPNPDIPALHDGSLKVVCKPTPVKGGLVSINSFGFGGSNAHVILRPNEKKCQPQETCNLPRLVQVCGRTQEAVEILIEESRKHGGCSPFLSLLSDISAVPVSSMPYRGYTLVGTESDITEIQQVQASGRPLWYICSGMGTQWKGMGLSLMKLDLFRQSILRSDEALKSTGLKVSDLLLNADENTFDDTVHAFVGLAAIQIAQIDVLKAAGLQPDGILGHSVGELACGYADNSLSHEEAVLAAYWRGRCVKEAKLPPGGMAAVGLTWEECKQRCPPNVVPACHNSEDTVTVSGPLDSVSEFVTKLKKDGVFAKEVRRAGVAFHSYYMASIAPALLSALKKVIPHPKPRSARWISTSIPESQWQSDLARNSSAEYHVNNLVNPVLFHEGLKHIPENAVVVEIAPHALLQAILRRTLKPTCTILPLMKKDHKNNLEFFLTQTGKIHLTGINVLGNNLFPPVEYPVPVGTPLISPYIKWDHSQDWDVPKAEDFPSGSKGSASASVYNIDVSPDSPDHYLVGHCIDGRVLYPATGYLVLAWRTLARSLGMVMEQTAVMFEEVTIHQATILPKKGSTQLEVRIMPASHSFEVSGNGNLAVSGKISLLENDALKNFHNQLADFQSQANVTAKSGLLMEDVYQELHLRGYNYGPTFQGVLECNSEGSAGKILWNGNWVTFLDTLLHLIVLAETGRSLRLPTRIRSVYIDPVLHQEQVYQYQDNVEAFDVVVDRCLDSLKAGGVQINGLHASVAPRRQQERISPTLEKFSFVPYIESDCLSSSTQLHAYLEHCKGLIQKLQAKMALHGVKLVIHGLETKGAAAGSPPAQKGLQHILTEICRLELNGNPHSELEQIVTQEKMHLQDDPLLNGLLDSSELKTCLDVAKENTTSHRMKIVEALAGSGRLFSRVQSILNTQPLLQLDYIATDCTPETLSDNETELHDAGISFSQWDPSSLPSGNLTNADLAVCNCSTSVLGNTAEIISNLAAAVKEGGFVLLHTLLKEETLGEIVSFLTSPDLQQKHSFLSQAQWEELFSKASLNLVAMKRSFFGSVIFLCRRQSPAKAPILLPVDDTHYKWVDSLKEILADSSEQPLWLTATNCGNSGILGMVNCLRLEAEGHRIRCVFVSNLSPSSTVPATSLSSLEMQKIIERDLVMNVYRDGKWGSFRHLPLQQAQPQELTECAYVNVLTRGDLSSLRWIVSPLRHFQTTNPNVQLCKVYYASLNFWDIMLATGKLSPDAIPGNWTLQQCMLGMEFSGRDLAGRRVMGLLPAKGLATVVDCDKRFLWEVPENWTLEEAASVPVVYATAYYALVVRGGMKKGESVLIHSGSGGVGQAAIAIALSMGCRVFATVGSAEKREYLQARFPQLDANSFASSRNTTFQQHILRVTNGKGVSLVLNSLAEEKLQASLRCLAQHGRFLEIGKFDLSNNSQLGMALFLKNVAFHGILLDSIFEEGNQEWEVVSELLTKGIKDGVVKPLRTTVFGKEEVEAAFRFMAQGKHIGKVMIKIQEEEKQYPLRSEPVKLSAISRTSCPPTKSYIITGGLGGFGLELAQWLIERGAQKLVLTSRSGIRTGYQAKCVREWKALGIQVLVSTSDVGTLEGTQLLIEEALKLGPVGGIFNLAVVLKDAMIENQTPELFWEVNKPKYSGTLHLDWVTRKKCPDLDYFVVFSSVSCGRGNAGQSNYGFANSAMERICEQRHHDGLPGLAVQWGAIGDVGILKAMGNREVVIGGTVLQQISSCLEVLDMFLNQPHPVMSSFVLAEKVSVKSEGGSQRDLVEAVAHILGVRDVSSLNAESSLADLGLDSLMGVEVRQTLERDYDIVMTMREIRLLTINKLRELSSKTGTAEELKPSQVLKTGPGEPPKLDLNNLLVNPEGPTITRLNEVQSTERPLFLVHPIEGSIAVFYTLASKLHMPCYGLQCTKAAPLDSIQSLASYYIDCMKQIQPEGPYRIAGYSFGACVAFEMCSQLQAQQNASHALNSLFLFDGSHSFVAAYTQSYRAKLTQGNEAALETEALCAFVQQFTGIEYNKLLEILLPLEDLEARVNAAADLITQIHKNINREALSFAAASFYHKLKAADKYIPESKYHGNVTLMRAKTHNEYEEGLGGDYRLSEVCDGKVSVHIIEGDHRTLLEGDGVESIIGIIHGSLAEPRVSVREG

| SMILES | IC50 |
| --- | --- |
| C=CCSSSCC=C [Diallyl trisulfide] | 8.37 µM |
| C=CCSSCC=C [3-Allyldisulfanyl-propene] | 145 µM |
| CSSC [Dimethyl disulfide] | 2210 µM |
